Laboratory results: ChEMBL document CHEMBL2086332, “Identification of a selective small molecule inhibitor of breast cancer stem cells” (Bioorg Med Chem Lett, 2012)
≈ marks a conversion by molar mass, not a printed value. Each block holds one compound with its values, some of them ahead of it. Calls of active or inactive are those of the source. No cut-off for these calls is given here.

How the values were obtained:
[1] = Growth inhibition of human breast cancer stem cells; format: functional
[2] = Growth inhibition of human mammary epithelial cells at 20 uM; format: cell-based; details: epithelial cell
[3] = Growth inhibition of human mammary epithelial cells; format: cell-based; details: Epithelial cell
[4] = species: Homo sapiens; assay: Growth inhibition of human breast cancer stem cells at 20 uM; format: functional
[5] = Stability in phosphate buffered saline with 0.1% DMSO assessed as compound remaining measured after 48 hrs by UPLC-MS method; format: physicochemical; details: read-out: Stability
[6] = Solubility in phosphate buffered saline at 100 microM with 1% DMSO at pH 7.4 at 23 degC by UPLC-MS method; format: physicochemical
[7] = Protein binding in human plasma incubated for 48 hrs by UPLC-MS method; format: ADME, cell-free; details: read-out: PPB (converted)
[8] = Stability in human plasma assessed as compound remaining measured after 5 hrs by UPLC-MS method; format: ADME, cell-free; details: read-out: Stability
[9] = Stability in presence of glutathione containing medium assessed as compound remaining measured after 48 hrs by UPLC-MS method; format: physicochemical; details: read-out: Stability

SMILES: O=C(CCc1ccc2c(c1)OCO2)N/N=C/c1ccc[nH]1
EC50 [1]: 53.4 µM
growth inhibition (GI) [2]: Non-toxic

SMILES: O=C(COc1ccc2ccccc2c1Br)N/N=C/c1ccc[nH]1
EC50 [1]: 1.11 µM
EC50 [3]: 3.03 µM

SMILES: O=C(COc1ccc2c(c1)OCO2)N/N=C/c1ccc[nH]1
EC50 [1]: 36.2 µM
EC50 [3]: 21 µM

SMILES: O=C(COc1ccc(Cl)cc1Cl)N/N=C/c1ccc[nH]1
EC50 [1]: 3.33 µM
growth inhibition (GI) [2]: Non-toxic

SMILES: COc1ccccc1OCC(=O)N/N=C/c1ccc[nH]1
growth inhibition (GI) [4]: inactive
growth inhibition (GI) [2]: Non-toxic

SMILES: O=C(CSc1ccc(Cl)cc1Cl)N/N=C/c1ccc[nH]1
EC50 [1]: 2.3 µM
EC50 [3]: 18 µM

SMILES: Cn1cccc1/C=N/NC(=O)COc1ccc(Cl)cc1Cl
growth inhibition (GI) [4]: inactive
growth inhibition (GI) [2]: Non-toxic

SMILES: O=C(COc1ccc(Cl)cc1Cl)N/N=C/c1ccco1
growth inhibition (GI) [4]: inactive
growth inhibition (GI) [2]: Non-toxic

SMILES: CC(Oc1cc(Cl)ccc1Cl)C(=O)N/N=C/c1ccc[nH]1 (stereo not drawn)
EC50 [1]: 33.4 µM
EC50 [3]: 97.7 µM

SMILES: CC(C)(C)c1ccc(C2CC2C(=O)N/N=C/c2ccc[nH]2)cc1 (stereo not drawn)
EC50 [1]: 0.79 µM
EC50 [3]: 2.14 µM

SMILES: O=C(N/N=C/c1ccc[nH]1)c1cc2ccccc2o1
EC50 [1]: 6.32 µM
growth inhibition (GI) [2]: Non-toxic

SMILES: Cc1cc(Cl)ccc1OCC(=O)N/N=C/c1ccc[nH]1
EC50 [1]: 2.89 µM
EC50 [3]: 26.7 µM

SMILES: O=C(COc1ccc(F)cc1Cl)N/N=C/c1ccc[nH]1
EC50 [1]: 8.86 µM
EC50 [3]: 33.6 µM

SMILES: Cc1cc(Br)ccc1OCC(=O)N/N=C/c1ccc[nH]1
EC50 [1]: 3.76 µM
growth inhibition (GI) [2]: Non-toxic

SMILES: O=C(COc1ccc(Cl)cc1Cl)N/N=C/c1ccccn1
growth inhibition (GI) [4]: inactive
growth inhibition (GI) [2]: Non-toxic

SMILES: O=C(N/N=C/c1ccc[nH]1)C1Cc2ccccc2O1 (stereo not drawn)
growth inhibition (GI) [4]: inactive
growth inhibition (GI) [2]: Non-toxic

SMILES: O=C(COc1ccc(Cl)cc1Cl)N/N=C/c1c[nH]cn1
growth inhibition (GI) [4]: inactive
growth inhibition (GI) [2]: Non-toxic

SMILES: O=C(COc1ccc(Cl)cc1Br)N/N=C/c1ccc[nH]1
EC50 [1]: 3.16 µM
EC50 [3]: 20.9 µM

SMILES: CC(C)(C)c1ccc2c(c1)OC(C(=O)N/N=C/c1ccc[nH]1)CO2 (stereo not drawn)
EC50 [1]: 2.51 µM
EC50 [3]: 15 µM

SMILES: O=C(COc1cc(Cl)ccc1Cl)N/N=C/c1ccc[nH]1
EC50 [1]: 3.39 µM
growth inhibition (GI) [2]: Non-toxic

SMILES: Cc1ccccc1OCC(=O)N/N=C/c1ccc[nH]1
EC50 [1]: 40.7 µM
growth inhibition (GI) [2]: Non-toxic

SMILES: O=C(COc1ccccc1Cl)N/N=C/c1ccc[nH]1
EC50 [1]: 33.5 µM
growth inhibition (GI) [2]: Non-toxic

SMILES: O=C(COc1ccc(Cl)cc1)N/N=C/c1ccc[nH]1
EC50 [1]: 22.5 µM
growth inhibition (GI) [2]: Non-toxic

SMILES: Cc1ccccc1NCC(=O)N/N=C/c1ccc[nH]1
growth inhibition (GI) [4]: inactive
growth inhibition (GI) [2]: Non-toxic

SMILES: O=C(COc1ccc(Cl)cc1Cl)N/N=C/c1ccccc1
growth inhibition (GI) [4]: inactive
growth inhibition (GI) [2]: Non-toxic

SMILES: O=C(COc1ccc(Cl)cc1Cl)N/N=C/c1cccs1
growth inhibition (GI) [4]: inactive
growth inhibition (GI) [2]: Non-toxic

SMILES: O=C(COc1c(Cl)cccc1Cl)N/N=C/c1ccc[nH]1
EC50 [1]: 126 µM
growth inhibition (GI) [2]: Non-toxic

SMILES: Cc1ccc(/C=N/NC(=O)COc2ccc(Cl)cc2Cl)[nH]1
EC50 [1]: 14.3 µM
EC50 [3]: 16.9 µM

SMILES: Cc1cc(C)c(OCC(=O)N/N=C/c2ccc[nH]2)c(C)c1
EC50 [1]: 9.42 µM
growth inhibition (GI) [2]: Non-toxic

SMILES: O=C(N/N=C/c1ccc[nH]1)C1COc2cc3ccccc3cc2O1 (stereo not drawn)
EC50 [1]: 4.21 µM
EC50 [3]: 18.9 µM

SMILES: N#Cc1ccccc1OCC(=O)N/N=C/c1ccc[nH]1
growth inhibition (GI) [4]: inactive
growth inhibition (GI) [2]: Non-toxic

SMILES: O=C(N/N=C/c1ccc[nH]1)C1CC1c1ccc(Cl)cc1Cl (stereo not drawn)
EC50 [1]: 59.1 µM
growth inhibition (GI) [2]: Non-toxic

SMILES: C/C(=N\NC(=O)COc1ccc(Cl)cc1Cl)c1ccc[nH]1
growth inhibition (GI) [4]: inactive
growth inhibition (GI) [2]: Non-toxic

SMILES: CC(Oc1ccc(F)cc1Cl)C(=O)N/N=C/c1ccc[nH]1 (stereo not drawn)
EC50 [1]: 35.4 µM
growth inhibition (GI) [2]: Non-toxic

SMILES: O=C(N/N=C/c1ccc[nH]1)C1CC1c1ccccc1 (stereo not drawn)
EC50 [1]: 12.9 µM
growth inhibition (GI) [2]: Non-toxic

SMILES: O=C(COc1ccc(Cl)cc1Cl)N/N=C/c1cc[nH]n1
growth inhibition (GI) [4]: inactive
growth inhibition (GI) [2]: Non-toxic

SMILES: O=C(COc1ccc(Cl)cc1Cl)N/N=C/c1ccccc1O
EC50 [1]: 79.5 µM
EC50 [3]: 56.3 µM

SMILES: O=C(COc1ccc(Cl)cc1Cl)N/N=C/c1cc2ccccc2[nH]1
EC50 [1]: 125 µM
EC50 [3]: 23.5 µM

remaining at 48 h [5]: 76%
solubility kinetic at 100 µM [6]: 6.3 µM (≈ 2.18 µg/mL)
fraction unbound at 48 h [7]: 0.012
remaining at 5 h [8]: 49%
remaining at 48 h [9]: 85%
SMILES: O=C(COc1c(Cl)cc(Cl)cc1Cl)N/N=C/c1ccc[nH]1
EC50 [1]: 1.16 µM
EC50 [3]: 27.6 µM
